± gives the expanded uncertainty stated by the source.
Key:
[1] = 100 kPa, Liquid; for viscosity: Falling or rolling sphere viscometry; for mass density: Vibrating tube method
[2] = xn = mol fraction of the nth substance listed; settings: 100 kPa, Liquid, x2 = 0; for viscosity: Falling or rolling sphere viscometry; for mass density: Vibrating tube method

Structure (SMILES)	viscosity ([1]; 293.15 K)	mass density ([1]; 293.15 K)	viscosity ([1]; 298.15 K)	mass density ([1]; 298.15 K)	viscosity ([1]; 303.15 K)	mass density ([1]; 303.15 K)	viscosity ([1]; 308.15 K)	mass density ([1]; 308.15 K)	viscosity ([1]; 313.15 K)	mass density ([1]; 313.15 K)	viscosity ([2]; 293.15 K)	mass density ([2]; 293.15 K)	viscosity ([2]; 298.15 K)	mass density ([2]; 298.15 K)	viscosity ([2]; 303.15 K)	mass density ([2]; 303.15 K)	viscosity ([2]; 308.15 K)	mass density ([2]; 308.15 K)	viscosity ([2]; 313.15 K)	mass density ([2]; 313.15 K)
CCCCCCCCCC [decane]	0.93 ± 0.012 mPa·s	730.52 ± 0.16 kg/m3	0.864 ± 0.012 mPa·s	726.76 ± 0.16 kg/m3	0.806 ± 0.012 mPa·s	722.97 ± 0.16 kg/m3	0.755 ± 0.011 mPa·s	719.17 ± 0.16 kg/m3	0.709 ± 0.011 mPa·s	715.36 ± 0.17 kg/m3	–	–	–	–	–	–	–	–	–	–
CCCCCCCCCCCC [dodecane]	1.5 ± 0.015 mPa·s	749 ± 0.16 kg/m3	1.376 ± 0.014 mPa·s	745.38 ± 0.16 kg/m3	1.265 ± 0.013 mPa·s	741.75 ± 0.16 kg/m3	1.167 ± 0.013 mPa·s	738.12 ± 0.16 kg/m3	1.081 ± 0.013 mPa·s	734.48 ± 0.16 kg/m3	–	–	–	–	–	–	–	–	–	–
CCCCCCCCCCCC [dodecane] + CCCCC1CCCCC1	–	–	–	–	–	–	–	–	–	–	1.5 ± 0.015 mPa·s	749 ± 0.16 kg/m3	1.376 ± 0.014 mPa·s	745.38 ± 0.16 kg/m3	1.265 ± 0.013 mPa·s	741.75 ± 0.16 kg/m3	1.167 ± 0.013 mPa·s	738.12 ± 0.16 kg/m3	1.081 ± 0.013 mPa·s	734.48 ± 0.16 kg/m3
CCCCCCCCCCCCCC [tetradecane]	2.329 ± 0.019 mPa·s	763.09 ± 0.15 kg/m3	2.096 ± 0.018 mPa·s	759.57 ± 0.15 kg/m3	1.898 ± 0.017 mPa·s	756.03 ± 0.15 kg/m3	1.729 ± 0.016 mPa·s	752.51 ± 0.16 kg/m3	1.584 ± 0.015 mPa·s	748.98 ± 0.16 kg/m3	–	–	–	–	–	–	–	–	–	–
CCCCCCCCCCCCCC [tetradecane] + CCCCC1CCCCC1	–	–	–	–	–	–	–	–	–	–	2.329 ± 0.019 mPa·s	763.09 ± 0.15 kg/m3	2.096 ± 0.018 mPa·s	759.57 ± 0.15 kg/m3	1.898 ± 0.017 mPa·s	756.03 ± 0.15 kg/m3	1.729 ± 0.016 mPa·s	752.51 ± 0.16 kg/m3	1.584 ± 0.015 mPa·s	748.98 ± 0.16 kg/m3

Further lines, results first:

viscosity ([1]; 293.15 K)	mass density ([1]; 293.15 K)	viscosity ([1]; 298.15 K)	mass density ([1]; 298.15 K)	viscosity ([1]; 303.15 K)	mass density ([1]; 303.15 K)	viscosity ([1]; 308.15 K)	mass density ([1]; 308.15 K)	viscosity ([1]; 313.15 K)	mass density ([1]; 313.15 K)	viscosity ([2]; 293.15 K)	mass density ([2]; 293.15 K)	viscosity ([2]; 298.15 K)	mass density ([2]; 298.15 K)	viscosity ([2]; 303.15 K)	mass density ([2]; 303.15 K)	viscosity ([2]; 308.15 K)	mass density ([2]; 308.15 K)	viscosity ([2]; 313.15 K)	mass density ([2]; 313.15 K)	Structure (SMILES)
1.296 ± 0.014 mPa·s	799.44 ± 0.15 kg/m3	1.196 ± 0.013 mPa·s	795.7 ± 0.15 kg/m3	1.107 ± 0.013 mPa·s	791.95 ± 0.15 kg/m3	1.027 ± 0.013 mPa·s	788.19 ± 0.15 kg/m3	0.958 ± 0.012 mPa·s	784.41 ± 0.15 kg/m3	–	–	–	–	–	–	–	–	–	–	CCCCC1CCCCC1 [butylcyclohexane]
–	–	–	–	–	–	–	–	–	–	0.93 ± 0.012 mPa·s	730.52 ± 0.16 kg/m3	0.864 ± 0.012 mPa·s	726.76 ± 0.16 kg/m3	0.806 ± 0.012 mPa·s	722.97 ± 0.16 kg/m3	0.755 ± 0.011 mPa·s	719.17 ± 0.16 kg/m3	0.709 ± 0.011 mPa·s	715.36 ± 0.17 kg/m3	CCCCCCCCCC [decane] + CCCCC1CCCCC1
0.421 ± 0.01 mPa·s	683.99 ± 0.17 kg/m3	0.398 ± 0.01 mPa·s	679.74 ± 0.18 kg/m3	0.378 ± 0.01 mPa·s	675.41 ± 0.18 kg/m3	0.352 ± 0.01 mPa·s	671.12 ± 0.18 kg/m3	0.337 ± 0.01 mPa·s	666.92 ± 0.18 kg/m3	–	–	–	–	–	–	–	–	–	–	CCCCCCC [heptane]
–	–	–	–	–	–	–	–	–	–	0.421 ± 0.01 mPa·s	683.99 ± 0.17 kg/m3	0.398 ± 0.01 mPa·s	679.74 ± 0.18 kg/m3	0.378 ± 0.01 mPa·s	675.41 ± 0.18 kg/m3	0.352 ± 0.01 mPa·s	671.12 ± 0.18 kg/m3	0.337 ± 0.01 mPa·s	666.92 ± 0.18 kg/m3	CCCCCCC [heptane] + CCCCC1CCCCC1
0.725 ± 0.011 mPa·s	717.88 ± 0.16 kg/m3	0.679 ± 0.011 mPa·s	714 ± 0.17 kg/m3	0.639 ± 0.011 mPa·s	710.1 ± 0.17 kg/m3	0.604 ± 0.011 mPa·s	706.19 ± 0.17 kg/m3	0.572 ± 0.011 mPa·s	702.26 ± 0.17 kg/m3	–	–	–	–	–	–	–	–	–	–	CCCCCCCCC [nonane]
–	–	–	–	–	–	–	–	–	–	0.725 ± 0.011 mPa·s	717.88 ± 0.16 kg/m3	0.679 ± 0.011 mPa·s	714 ± 0.17 kg/m3	0.639 ± 0.011 mPa·s	710.1 ± 0.17 kg/m3	0.604 ± 0.011 mPa·s	706.19 ± 0.17 kg/m3	0.572 ± 0.011 mPa·s	702.26 ± 0.17 kg/m3	CCCCCCCCC [nonane] + CCCCC1CCCCC1
0.546 ± 0.011 mPa·s	702.86 ± 0.17 kg/m3	0.521 ± 0.011 mPa·s	698.85 ± 0.17 kg/m3	0.49 ± 0.011 mPa·s	694.8 ± 0.17 kg/m3	0.467 ± 0.011 mPa·s	690.73 ± 0.17 kg/m3	0.442 ± 0.011 mPa·s	686.63 ± 0.17 kg/m3	–	–	–	–	–	–	–	–	–	–	CCCCCCCC [octane]
–	–	–	–	–	–	–	–	–	–	0.546 ± 0.011 mPa·s	702.86 ± 0.17 kg/m3	0.521 ± 0.011 mPa·s	698.85 ± 0.17 kg/m3	0.49 ± 0.011 mPa·s	694.8 ± 0.17 kg/m3	0.467 ± 0.011 mPa·s	690.73 ± 0.17 kg/m3	0.442 ± 0.011 mPa·s	686.63 ± 0.17 kg/m3	CCCCCCCC [octane] + CCCCC1CCCCC1

From the NIST ThermoML archive (doi:10.1021/je400835u)
